According to US9980979B2, “Compounds and methods for enhancing erythropoiesis” (NATIONAL YANG-MING UNIVERSITY, priority 2008, dated 2018):

Key:
erythropoietin (Epo) [1] = experiment: Epo expression in isolated hepatocytes (RT-PCR); assay type: cell-based, mouse; details: 0.1-12.5 μg/ml, 24 hours; FIG. 4
Method: C57BL/6JNarl mice, 8-10 weeks of age, were purchased from the National Laboratory Animal Center (NLAC, Taiwan). The hepatocytes were isolated as previously described with modifications (Kreamer et al., 1986). Briefly, mice were anaesthetized with Avertin (2% (w/v) 2,2,2-tribromoethanol, i.p., 300 mg/Kg body weight) and the liver was perfused in situ through portal vein with a calcium-free Hank's balanced salt solution (HBSS) containing 0.5 mM Ethylene glycol-bis(2-aminoethylether)-N,N,N′,N′-tetraacetic acid (EGTA; Sigma-Aldrich). […] After 10 min of perfusion, HBSS containing 0.05% (w/v) collagenase (Type II; Worthington Biochemical Corporation) and 1 mM calcium chloride (Sigma-Aldrich) was introduced into the perfusion apparatus. The perfusion was continued for another 10 min at the same flow rate. The partially digested liver was removed, placed in a 60-mm culture dish (BD Falcon) containing HBSS, and gently minced to open the liver capsula. […]
The isolated hepatocytes were plated in 6-well plates (Costar) at approximately 6×10^5 cells/well in DMEM medium (Gibco/Invitrogen) containing 10% FBS (Gibco) in a humidified 37° C. incubator containing 5% CO2-95% air. […] The RNA of hepatocyte was extracted by RNA-Bee™ RNA isolation solvent (Tel-test) for reverse transcription, and the transcripts analyzed by PCR as previously described.

erythropoietin (Epo) [2] = experiment: liver expression of Epo in cisplatin-induced acute renal failure animal model (PCR); assay type: in vivo, mouse; details: 30~90 mg/kg/day, day 28, versus untreated control group; FIG. 9
Method: (§1) The effects of Compound A treatment on cisplatin-induced acute renal failure animal model were investigated. C57BL/6JNarl mice (8-week-old) were purchased from the National Laboratory Animal Center (NLAC, Taiwan). Cisplatin (Sigma-Aldrich) was dissolved in normal saline (0.9% (w/v) sodium chloride, Sigma-Aldrich) at a concentration of 1 mg/ml, and injected into mice intraperitoneally (i.p.) according to the following schedule: day 1, 7 mg/kg; day 5, 6 mg/kg; and day 9, 6 mg/kg. For cisplatin-untreated normal mice group, normal saline injections of corresponding volumes were given i.p. in parallel. At day 13, serum samples were collected and blood urea nitrogen (BUN) contents were assayed. […]
(§2) At the end of the experiments described in EXAMPLE 6 (i.e., day 28), mice were sacrificed, kidney and liver tissues were removed, and bone marrow cells were isolated. […] The reverse-transcribed cDNA samples were analyzed by PCR using ABI GeneAmp™ system 2700 (Applied Biosystems) and the SYBR Green Master Mix kit (Applied Biosystems) using primers targeting toward mouse glyceraldehyde 3-phosphate dehydrogenase (GAPDH) (SEQ ID NOs: 5 and 6), erythropoietin (Epo) (SEQ ID NOs: 3 and 4) and hepatocyte growth factor (HGF) (SEQ ID NOs: 7 and 8) (Table 1). Results were expressed as relative index±S.E. (n=5˜6). […]

[3] = system: hepatocyte growth factor (HGF); experiment: liver expression of HGF in cisplatin-induced acute renal failure animal model (PCR); assay type: in vivo, mouse; details: 10~90 mg/Kg/day, day 28; FIG. 10
Method: as §1, §2

[4] = comparison with 3,4′,5-trihydroxy-trans-stilbene (data not shown)

For OC[C@H]1O[C@@H](Oc2c(O)cc(O)cc2/C=C/c2ccc(O)cc2)[C@H](O)[C@@H](O)[C@@H]1O [Compound A, 2,3,5,4′-tetrahydroxystilbene 2-O-β-D-glucopyranoside], the “expression of Epo in hepatocytes” value (erythropoietin (Epo) [1]) was “enhanced the expression of Epo in hepatocytes”, the “expression of Epo in liver (relative index)” value (erythropoietin (Epo) [2]) was “significantly increased the expression of Epo in liver” and the “expression of HGF in liver tissue (relative index)” value [3] was “enhanced the expression of HGF in liver tissue”. For the same compound, the “enhancing renal functions and improving anemia, compared with 3,4′,5-trihydroxy-trans-stilbene” value ([4]; data not shown) was “superior to 3,4′,5-trihydroxy-trans-stilbene” and the “enhancing erythropoiesis and kidney functions, compared with 3,4′,5-trihydroxy-trans-stilbene” value ([4]; no data shown) was “superior to 3,4′,5-trihydroxy-trans-stilbene”.
